Measurements: patent US20250171420A1 (Monte Rosa Therapeutics, Inc., priority 2022, published 2025)
pIC50: −log10 of the molar value. Where two headings read alike, the source gives them in different places.

Legend:
[1] = tested on: LS180 cell line; experiment: Growth inhibition, CyQUANT Direct Cell Proliferation Assay, LS180; format: cell-based; conditions: Homo sapiens
Procedure: (§1) SKCO1, LS180, and LS174T cell lines were purchased from ATCC. CW2 cell line was purchased from Riken. GP2D cell line was purchased from Sigma/ECACC. All cell lines were cultured in manufacturer's recommended media at 37° C., 5% CO2. Briefly, cells were suspended in 200 μL of media and seeded at 300 to 1,800 cells per well in tissue culture treated 96-well plates with black walls and clear bottom. Plates were incubated overnight and initial (To) read was performed the following day using CyQUANT Direct Cell Proliferation Assay Kit (Thermo Fisher Scientific) according to manufacturer's protocol. All compounds were solubilized in DMSO and prepared at 3-fold serial dilution, using 9 points starting at 30 μM as highest concentration, administered to cells and incubated for 120 to 168 hours, at which point CyQUANT assay measurement was performed using Acumen Cellista instrument (Ex/Em 480/520 nm). Media-only wells were used as blank, and 0.3% DMSO was used as DMSO-treated cell control. Growth inhibition (percent response) was calculated using the following formula in Excel: “=if ([Compound treated Day N]>[Untreated Day 0, AVG], ([Compound treated Day N]−[Untreated Day 0, AVG])/([Untreated Day N]−[Untreated Day 0, AVG])*100, ([Compound Treated Day N]−[Untreated Day 0, AVG])/([Untreated Day 0, AVG])*100)”. GI50 is the response corresponding to the 50% of untreated control.
(§2) GI50 data are reported in Tables 4a, 4b, 4c, 4d, and 4e for compounds in Table 1. In Tables 4a, 4b, 4c, 4d, and 4e below, According to the code, A represents a GI50 value of ≤0.1 μM, B represents a GI50 value>0.1 μM and ≤1 μM, C represents an GI50 value>1 μM.

[2] = tested on: LS174T cell line; experiment: Growth inhibition, CyQUANT Direct Cell Proliferation Assay, LS174T; format: cell-based; conditions: Homo sapiens
Procedure: as §1, §2

[3] = tested on: CW2 cell line; experiment: Growth inhibition, CyQUANT Direct Cell Proliferation Assay, CW2; format: cell-based; conditions: Homo sapiens
Procedure: as §1, §2

[4] = tested on: GP2D cell line; experiment: Growth inhibition, CyQUANT Direct Cell Proliferation Assay, GP2D; format: cell-based
Procedure: as §1, §2

[5] = molecular target: CRBN/DDB1 (Homo sapiens, UniProt Q96SW2); experiment: HTRF binding assay (displacement of Cy5-thalidomide probe from CRBN/DDB1); conditions: CRBN/DDB1 2.5 nM, Cy5-Thalidomide 100 nM, 30 min; geometric mean; read-out: HTRF_Thali_Disp_DR_geo_IC50
Procedure, shortened: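 HTRF displacement of Cy5-thalidomide (100 nM) from His-tagged CRBN/DDB1 (2.5 nM) with anti-His Tb cryptate in 20 mM HEPES, 20 mM NaCl, 0.2 mM TCEP, 0.2 mM EDTA, 0.005% Tween20. 10-point 1:3 series, 30 min ambient. 665/620 nm ratio fitted 4-parameter for IC50; Ki by Cheng-Prusoff from geometric-mean IC50.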

[6] = tested on: SKCO1 cell line; experiment: Growth inhibition, CyQUANT Direct Cell Proliferation Assay, SKCO1; format: cell-based; conditions: Homo sapiens
Procedure: as §1, §2

[7] = molecular target: T1, CK1α (Homo sapiens, UniProt P48729); experiment: CK1α NanoBit Assay (HiBiT-tagged CSNK1A1, HEK293 clonal lines); format: cell-based; conditions: HEK293 HiBiT-CSNK1A1/LgBiT cells, 24 h incubation
T1 construct: HEK293 clonal lines with CRISPR KI HiBiT tag on CSNK1A1
Procedure, shortened: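 HEK293 clones carrying a CRISPR knock-in HiBiT tag on CSNK1A1 and stably expressing LgBiT are treated with compound for 24 hours at 37° C, 5% CO2, then read by luminescence. Response is normalized as 100*(S−N)/(P−N) against plate negative and positive controls, and DC50 values are derived.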

[8] = LS180, 120 to 168 hours, read-out: LS180 GI50
[9] = 120 to 168 hours, read-out: LS174T GI50
[10] = CW-2, CW2, 120 to 168 hours, read-out: CW2 GI50
[11] = GP2D, 120 to 168 hours, read-out: GP2D GI50
[12] = SK-CO-1, SKCO1, 120 to 168 hours, read-out: SKCO1 GI50
[13] = LS180, read-out: LS180 GI50 (μM)
[14] = SK-CO-1, read-out: SKCO1 GI50 (μM)

T1 sequence (P48729 whole entry): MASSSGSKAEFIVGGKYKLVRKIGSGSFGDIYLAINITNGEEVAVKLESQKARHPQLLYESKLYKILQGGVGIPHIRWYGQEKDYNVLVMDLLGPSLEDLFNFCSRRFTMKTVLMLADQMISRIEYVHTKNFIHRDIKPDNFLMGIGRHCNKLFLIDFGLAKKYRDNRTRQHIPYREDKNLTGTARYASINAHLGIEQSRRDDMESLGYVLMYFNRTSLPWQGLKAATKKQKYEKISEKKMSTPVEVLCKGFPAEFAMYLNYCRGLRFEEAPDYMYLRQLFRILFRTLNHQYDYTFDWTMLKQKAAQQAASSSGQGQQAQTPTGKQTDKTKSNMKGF
T1 sequence (Q96SW2 whole entry, further chain): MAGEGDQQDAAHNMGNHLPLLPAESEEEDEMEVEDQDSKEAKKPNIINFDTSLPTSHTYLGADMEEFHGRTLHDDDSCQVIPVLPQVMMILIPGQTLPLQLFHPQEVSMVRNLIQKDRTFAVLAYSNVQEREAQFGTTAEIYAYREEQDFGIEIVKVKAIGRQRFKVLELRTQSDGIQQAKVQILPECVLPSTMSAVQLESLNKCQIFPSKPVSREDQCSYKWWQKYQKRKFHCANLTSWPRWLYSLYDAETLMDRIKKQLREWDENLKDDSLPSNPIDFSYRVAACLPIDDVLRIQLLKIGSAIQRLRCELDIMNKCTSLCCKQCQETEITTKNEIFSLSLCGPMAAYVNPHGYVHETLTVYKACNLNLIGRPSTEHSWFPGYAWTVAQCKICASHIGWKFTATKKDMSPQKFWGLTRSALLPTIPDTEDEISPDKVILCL
T1 sequence (Q16531 2-1140 partner limits assumed): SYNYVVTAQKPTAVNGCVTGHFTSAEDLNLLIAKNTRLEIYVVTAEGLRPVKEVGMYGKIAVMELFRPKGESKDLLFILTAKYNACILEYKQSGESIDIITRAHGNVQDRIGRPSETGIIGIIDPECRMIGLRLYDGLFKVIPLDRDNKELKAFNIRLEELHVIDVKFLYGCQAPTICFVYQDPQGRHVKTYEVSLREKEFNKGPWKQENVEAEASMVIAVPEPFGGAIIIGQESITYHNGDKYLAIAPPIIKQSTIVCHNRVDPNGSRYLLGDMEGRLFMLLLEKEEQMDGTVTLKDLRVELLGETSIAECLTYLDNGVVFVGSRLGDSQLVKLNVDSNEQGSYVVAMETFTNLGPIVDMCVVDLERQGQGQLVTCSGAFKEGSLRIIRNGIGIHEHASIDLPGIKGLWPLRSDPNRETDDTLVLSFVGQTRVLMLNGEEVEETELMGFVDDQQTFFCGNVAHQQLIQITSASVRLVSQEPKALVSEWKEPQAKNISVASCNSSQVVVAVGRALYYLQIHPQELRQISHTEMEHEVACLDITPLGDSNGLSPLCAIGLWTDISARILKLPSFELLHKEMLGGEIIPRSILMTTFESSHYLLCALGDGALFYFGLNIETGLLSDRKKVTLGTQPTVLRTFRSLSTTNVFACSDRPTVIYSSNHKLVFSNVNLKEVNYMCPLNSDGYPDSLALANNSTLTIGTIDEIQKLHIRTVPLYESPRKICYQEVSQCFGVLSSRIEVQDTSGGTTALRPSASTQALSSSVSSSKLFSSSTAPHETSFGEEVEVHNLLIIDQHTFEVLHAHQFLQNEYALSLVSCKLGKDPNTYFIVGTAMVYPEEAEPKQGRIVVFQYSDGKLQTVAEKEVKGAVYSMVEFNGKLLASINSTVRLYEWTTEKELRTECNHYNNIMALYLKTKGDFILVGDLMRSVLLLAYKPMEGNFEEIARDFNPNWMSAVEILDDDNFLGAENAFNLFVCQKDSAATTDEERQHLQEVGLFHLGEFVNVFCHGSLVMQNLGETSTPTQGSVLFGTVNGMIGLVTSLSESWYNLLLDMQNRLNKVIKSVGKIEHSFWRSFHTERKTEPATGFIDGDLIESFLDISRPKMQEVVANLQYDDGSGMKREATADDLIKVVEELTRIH
CRBN/DDB1, sequence (Q96SW2 whole entry, species assumed): as the sequence (Q96SW2 whole entry, further chain) above
CRBN/DDB1, sequence (Q16531 whole entry partner, species assumed): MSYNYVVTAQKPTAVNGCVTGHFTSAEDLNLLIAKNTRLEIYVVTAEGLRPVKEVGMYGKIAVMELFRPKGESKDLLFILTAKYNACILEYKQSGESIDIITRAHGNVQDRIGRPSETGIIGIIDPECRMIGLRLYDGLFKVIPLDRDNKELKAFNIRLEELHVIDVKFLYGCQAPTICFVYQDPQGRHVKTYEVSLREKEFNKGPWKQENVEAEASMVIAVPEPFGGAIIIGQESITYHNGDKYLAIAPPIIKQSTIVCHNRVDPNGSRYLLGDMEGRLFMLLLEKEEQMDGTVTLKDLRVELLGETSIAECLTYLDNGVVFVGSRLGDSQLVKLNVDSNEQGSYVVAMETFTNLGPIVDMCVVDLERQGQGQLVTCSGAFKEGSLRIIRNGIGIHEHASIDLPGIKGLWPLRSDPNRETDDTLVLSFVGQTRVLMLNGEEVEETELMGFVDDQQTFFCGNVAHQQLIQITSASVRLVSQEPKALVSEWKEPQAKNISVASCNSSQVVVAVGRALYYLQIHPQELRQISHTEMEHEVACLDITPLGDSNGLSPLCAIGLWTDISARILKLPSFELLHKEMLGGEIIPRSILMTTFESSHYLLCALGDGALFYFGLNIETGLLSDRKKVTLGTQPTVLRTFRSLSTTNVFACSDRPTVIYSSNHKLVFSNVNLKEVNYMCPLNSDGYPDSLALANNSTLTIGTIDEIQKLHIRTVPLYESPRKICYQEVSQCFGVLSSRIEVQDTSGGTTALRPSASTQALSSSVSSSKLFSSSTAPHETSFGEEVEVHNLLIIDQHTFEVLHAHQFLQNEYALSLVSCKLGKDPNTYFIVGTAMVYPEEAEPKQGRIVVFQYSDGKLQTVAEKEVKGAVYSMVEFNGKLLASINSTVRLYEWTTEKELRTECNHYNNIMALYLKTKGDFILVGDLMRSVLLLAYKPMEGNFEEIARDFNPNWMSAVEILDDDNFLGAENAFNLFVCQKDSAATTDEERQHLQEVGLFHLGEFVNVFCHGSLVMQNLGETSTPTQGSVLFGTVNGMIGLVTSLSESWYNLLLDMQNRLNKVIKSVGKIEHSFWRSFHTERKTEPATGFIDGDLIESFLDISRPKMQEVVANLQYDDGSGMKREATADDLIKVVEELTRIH

Structure (SMILES) | pIC50 [5] | GI50 [6, 12] [µM] | DC50 [7] [µM] | GI50 [1, 8] [µM] | GI50 [2, 9] [µM] | GI50 [3, 10] [µM] | GI50 [4, 11] [µM] | GI50 [1, 13] [µM] | GI50 ([2]; read-out: LS174T GI50 (μM)) [µM] | GI50 ([3]; CW-2, read-out: CW2 GI50 (μM)) [µM] | GI50 ([4]; GP2d, read-out: GP2D GI50 (μM)) [µM] | GI50 [6, 14] [µM]
COC[C@@H]1Cc2ccccc2N1C(=O)Nc1ccc2c(c1)CN(C1CCC(=O)NC1=O)C2=O (stereo in doubt) [Compound 337, (S)—N-(2-((S)-2,6-dioxopiperidin-3-yl)-1-oxoisoindolin-5-yl)-2-(methoxymethyl)indoline-1-carboxamide] | 6.00 to 7.00 | < 0.1 | < 0.1 | 0.1 to 1 | 0.1 to 1 | 0.1 to 1 | 0.1 to 1 | – | – | – | – | –
N#Cc1ccc2c(c1)CCN2C(=O)Nc1ccc2c(c1)CN(C1CCC(=O)NC1=O)C2=O (stereo not drawn) [Compound 142, 5-cyano-N-(2-(2,6-dioxopiperidin-3-yl)-1-oxoisoindolin-5-yl)indoline-1-carboxamide] | 6.00 to 7.00 | – | < 0.1 | – | – | – | – | 0.1 to 1 | 0.1 to 1 | > 1 | 0.1 to 1 | 0.1 to 1
O=C1CCC(N2Cc3cc(NC(=O)N4CCc5ccc(F)cc54)ccc3C2=O)C(=O)N1 (stereo not drawn) [Compound 186, N-(2-(2,6-dioxopiperidin-3-yl)-1-oxoisoindolin-5-yl)-6-fluoroindoline-1-carboxamide] | 6.00 to 7.00 | – | < 0.1 | – | – | – | – | < 0.1 | < 0.1 | < 0.1 | < 0.1 | < 0.1
O=C1CCC(N2Cc3cc(NC(=O)N4CCc5cc(F)ccc54)ccc3C2=O)C(=O)N1 (stereo not drawn) [Compound 178, N-(2-(2,6-dioxopiperidin-3-yl)-1-oxoisoindolin-5-yl)-5-fluoroindoline-1-carboxamide] | 6.00 to 7.00 | – | < 0.1 | – | – | – | – | 0.1 to 1 | 0.1 to 1 | 0.1 to 1 | 0.1 to 1 | 0.1 to 1
O=C1CCC(N2Cc3cc(NC(=O)N4CCc5cc(C6CCC6)ccc54)ccc3C2=O)C(=O)N1 (stereo not drawn) [Compound 357, 5-cyclobutyl-N-(2-(2,6-dioxopiperidin-3-yl)-1-oxoisoindolin-5-yl)indoline-1-carboxamide] | < 6.00 | – | < 0.1 | – | – | – | – | 0.1 to 1 | < 0.1 | < 0.1 | < 0.1 | < 0.1
Cc1ccc2c(c1)N(C(=O)Nc1ccc3c(c1)CN(C1CCC(=O)NC1=O)C3=O)CC2 (stereo not drawn) [Compound 190, N-(2-(2,6-dioxopiperidin-3-yl)-1-oxoisoindolin-5-yl)-6-methylindoline-1-carboxamide] | 6.00 to 7.00 | – | < 0.1 | – | – | – | – | 0.1 to 1 | 0.1 to 1 | 0.1 to 1 | 0.1 to 1 | 0.1 to 1
O=C1CCC(N2Cc3cc(NC(=O)N4CCc5ccc(Cl)cc54)ccc3C2=O)C(=O)N1 (stereo not drawn) [Compound 137, 6-chloro-N-(2-(2,6-dioxopiperidin-3-yl)-1-oxoisoindolin-5-yl)indoline-1-carboxamide] | 6.00 to 7.00 | – | < 0.1 | – | – | – | – | 0.1 to 1 | 0.1 to 1 | < 0.1 | 0.1 to 1 | 0.1 to 1
O=C1CCC(N2Cc3cc(NC(=O)N4CCc5cc(C(F)(F)F)ncc54)ccc3C2=O)C(=O)N1 (stereo not drawn) [Compound 287, N-(2-(2,6-dioxopiperidin-3-yl)-1-oxoisoindolin-5-yl)-5-(trifluoromethyl)-2,3-dihydro-1H-pyrrolo[2,3-c]pyridine-1-carboxamide] | 6.00 to 7.00 | – | < 0.1 | – | – | – | – | 0.1 to 1 | < 0.1 | < 0.1 | < 0.1 | < 0.1

Second part, led by results:

pIC50 [5] | GI50 [6, 12] [µM] | DC50 [7] [µM] | Structure (SMILES) | GI50 [1, 8] [µM] | GI50 [2, 9] [µM] | GI50 [3, 10] [µM] | GI50 [4, 11] [µM] | GI50 [1, 13] [µM] | GI50 ([2]; read-out: LS174T GI50 (μM)) [µM] | GI50 ([3]; CW-2, read-out: CW2 GI50 (μM)) [µM] | GI50 ([4]; GP2d, read-out: GP2D GI50 (μM)) [µM] | GI50 [6, 14] [µM]
6.00 to 7.00 | < 0.1 | < 0.1 | Cc1ccc2c(c1)CCN2C(=O)Nc1ccc2c(c1)CN(C1CCC(=O)NC1=O)C2=O (stereo not drawn) [Compound 214, N-(2-(2,6-dioxopiperidin-3-yl)-1-oxoisoindolin-5-yl)-5-methylindoline-1-carboxamide] | 0.1 to 1 | 0.1 to 1 | < 0.1 | < 0.1 | – | – | – | – | –
6.00 to 7.00 | < 0.1 | < 0.1 | C[C@H]1CN(C(=O)Nc2ccc3c(c2)CN(C2CCC(=O)NC2=O)C3=O)c2ccccc21 (stereo partly drawn) [Compound 284] | 0.1 to 1 | < 0.1 | < 0.1 | 0.1 to 1 | – | – | – | – | –
6.00 to 7.00 | < 0.1 | < 0.1 | COCc1cccc2c1CCN2C(=O)Nc1ccc2c(c1)CN(C1CCC(=O)NC1=O)C2=O (stereo not drawn) [Compound 341] | 0.1 to 1 | 0.1 to 1 | 0.1 to 1 | < 0.1 | – | – | – | – | –
6.00 to 7.00 | < 0.1 | < 0.1 | O=C1CCC(N2Cc3cc(NC(=O)N4C[C@H](C5CC5)C[C@@H]4C4CC4)ccc3C2=O)C(=O)N1 (stereo partly drawn) [Compound 256] | 0.1 to 1 | < 0.1 | < 0.1 | 0.1 to 1 | – | – | – | – | –
> 7.00 | 0.1 to 1 | < 0.1 | N#Cc1cccc2c1CCN2C(=O)Nc1ccc2c(c1)CN(C1CCC(=O)NC1=O)C2=O (stereo not drawn) [Compound 148, 4-cyano-N-(2-(2,6-dioxopiperidin-3-yl)-1-oxoisoindolin-5-yl)indoline-1-carboxamide] | 0.1 to 1 | 0.1 to 1 | 0.1 to 1 | 0.1 to 1 | – | – | – | – | –
6.00 to 7.00 | 0.1 to 1 | < 0.1 | O=C1CCC(N2Cc3cc(NC(=O)N4Cc5ccccc5C4)ccc3C2=O)C(=O)N1 (stereo not drawn) [Compound 106, N-(2-(2,6-dioxopiperidin-3-yl)-1-oxoisoindolin-5-yl)isoindoline-2-carboxamide] | > 1 | > 1 | 0.1 to 1 | 0.1 to 1 | – | – | – | – | –
6.00 to 7.00 | < 0.1 | < 0.1 | COC[C@H]1CN(C(=O)Nc2ccc3c(c2)CN(C2CCC(=O)NC2=O)C3=O)c2ccccc21 (stereo partly drawn) [Compound 338, (3R)—N-(2-(2,6-dioxopiperidin-3-yl)-1-oxoisoindolin-5-yl)-3-(methoxymethyl)indoline-1-carboxamide] | < 0.1 | < 0.1 | 0.1 to 1 | < 0.1 | – | – | – | – | –
6.00 to 7.00 | < 0.1 | < 0.1 | O=C1CCC(N2Cc3cc(NC(=O)N4CC5(CCOCC5)c5ccccc54)ccc3C2=O)C(=O)N1 (stereo not drawn) [Compound 189] | < 0.1 | < 0.1 | < 0.1 | < 0.1 | – | – | – | – | –
6.00 to 7.00 | < 0.1 | < 0.1 | CC1(c2ccc3c(c2)CCN3C(=O)Nc2ccc3c(c2)CN(C2CCC(=O)NC2=O)C3=O)CC1 (stereo not drawn) [Compound 344, N-(2-(2,6-dioxopiperidin-3-yl)-1-oxoisoindolin-5-yl)-5-(1-methylcyclopropyl)indoline-1-carboxamide] | 0.1 to 1 | 0.1 to 1 | < 0.1 | < 0.1 | – | – | – | – | –
6.00 to 7.00 | < 0.1 | < 0.1 | CC1CN(C(=O)Nc2ccc3c(c2)CN(C2CCC(=O)NC2=O)C3=O)c2ccccc21 (stereo in doubt) [Compound 283, (3R)—N-(2-(2,6-dioxopiperidin-3-yl)-1-oxoisoindolin-5-yl)-3-methylindoline-1-carboxamide] | 0.1 to 1 | 0.1 to 1 | 0.1 to 1 | < 0.1 | – | – | – | – | –
